According to patent US12103915B2, “TEAD inhibitors and methods of uses thereof” (Insilico Medicine IP Limited, priority 2022, dated 2024):

Columns and labels:
[1] = test system: NCI-H226 cells; assay: Cell growth assay (CellTiter-Glo); assay type: cell-based, human; conditions: Homo sapiens, NCI-H226, 168 h, 7 days treatment, CellTiter-Glo luminescence, read-out: H226 CTG IC50
Procedure: Example A: Cell Growth Assay
CellTiter-Glo reagent (CTG reagent, Promega, G7573).
[…] Also seeding an extra plate as Day 0 control measurement. The microplates were incubated at 37° C., 5% CO2 overnight.
Compounds were 3-fold serial diluted in DMSO and final top-concentration was […], 10 points. 0.3% DMSO as vehicle control. In addition, […] of CTG reagent was added into the extra plate and incubated at room temperature for 30 minutes and detected luminescence signals as Day 0 control by using EnVision (PerkinElmer, 2104 Mutilabel Reader).
Incubated other compounds treated plates at 37° C. for another 7 days and […] of CTG reagent was added into the plates and incubated at room temperature for 30 minutes and detected luminescence signals.
Day 0 luminescence signals were used as negative control or baseline. • Signalday0=average luminescence signals of Day 0 control cells. • Signalblank control=average luminescence signals of blank control. • SignalDMSO vehicle control=average luminescence signals of Day 7 DMSO vehicle control cells. • Signalcpds treatment=luminescence signals of Day 7 compounds treatment cells. Inhibition %=1−(Signalcpds treatment−Signalblank control)/(SignalDMSO vehicle control−Signalblank control)*100.
(Inhibitory concentration 50% (IC50) and maximum inhibition % were calculated using dose response curves.

[2] = target: TEAD2 (Homo sapiens, UniProt Q15562); assay: Thermal shift assay TEAD2; assay type: binding
How it was run: (§1)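 Protein melt reactions contained TEAD1 (0.2 mg/ml final) or TEAD2 (0.08 mg/ml final) plus compound at 1 or 10 μM in 0.1% DMSO. Thermal unfolding was followed by dye fluorescence on a qPCR instrument.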

[3] = target: TEAD4 (Homo sapiens, UniProt Q15561); assay: Thermal shift assay TEAD4; assay type: binding
How it was run: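 Compounds tested at 1 and 10 μM (0.1% DMSO, PBS) against TEAD4 protein at 0.1 mg/ml final. Melting followed by thermal shift dye fluorescence during a qPCR instrument ramp.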

[4] = target: TEAD1 (Homo sapiens, UniProt P28347); assay: Thermal shift assay TEAD1; assay type: binding
How it was run: as §1

[5] = target: TEAD3 (Homo sapiens, UniProt Q99594); assay: Thermal shift assay TEAD3; assay type: binding
How it was run: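 Compounds at 1 or 10 μM (0.1% DMSO, PBS dilution) mixed with 0.1 mg/ml final TEAD3 and thermal shift dye, then run through a qPCR melt to follow protein unfolding.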

Chain of TEAD3 (Q99594 whole entry, species assumed): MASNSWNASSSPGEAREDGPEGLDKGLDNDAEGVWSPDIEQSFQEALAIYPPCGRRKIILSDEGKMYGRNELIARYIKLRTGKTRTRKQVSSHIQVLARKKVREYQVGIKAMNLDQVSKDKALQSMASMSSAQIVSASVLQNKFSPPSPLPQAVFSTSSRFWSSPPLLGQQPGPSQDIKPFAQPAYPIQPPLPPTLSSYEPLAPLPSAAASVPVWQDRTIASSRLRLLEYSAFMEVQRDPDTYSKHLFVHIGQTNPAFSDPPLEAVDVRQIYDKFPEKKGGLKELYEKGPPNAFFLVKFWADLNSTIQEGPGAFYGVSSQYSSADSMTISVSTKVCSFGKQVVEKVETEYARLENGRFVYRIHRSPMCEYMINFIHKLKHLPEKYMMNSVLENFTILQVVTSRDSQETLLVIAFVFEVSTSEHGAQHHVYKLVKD
Chain of TEAD1 (P28347 whole entry, species assumed): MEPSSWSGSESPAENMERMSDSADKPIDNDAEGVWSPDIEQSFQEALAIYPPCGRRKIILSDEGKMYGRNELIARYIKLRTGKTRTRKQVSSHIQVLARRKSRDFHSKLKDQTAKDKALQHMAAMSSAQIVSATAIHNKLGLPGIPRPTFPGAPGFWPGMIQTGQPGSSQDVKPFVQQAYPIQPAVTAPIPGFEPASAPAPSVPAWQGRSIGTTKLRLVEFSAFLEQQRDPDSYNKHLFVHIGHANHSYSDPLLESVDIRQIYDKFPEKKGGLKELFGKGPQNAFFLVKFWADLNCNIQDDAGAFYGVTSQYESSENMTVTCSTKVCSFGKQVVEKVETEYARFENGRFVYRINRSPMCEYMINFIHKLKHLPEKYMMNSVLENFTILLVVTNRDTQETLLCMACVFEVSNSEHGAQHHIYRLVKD
Chain of TEAD4 (Q15561 whole entry, species assumed): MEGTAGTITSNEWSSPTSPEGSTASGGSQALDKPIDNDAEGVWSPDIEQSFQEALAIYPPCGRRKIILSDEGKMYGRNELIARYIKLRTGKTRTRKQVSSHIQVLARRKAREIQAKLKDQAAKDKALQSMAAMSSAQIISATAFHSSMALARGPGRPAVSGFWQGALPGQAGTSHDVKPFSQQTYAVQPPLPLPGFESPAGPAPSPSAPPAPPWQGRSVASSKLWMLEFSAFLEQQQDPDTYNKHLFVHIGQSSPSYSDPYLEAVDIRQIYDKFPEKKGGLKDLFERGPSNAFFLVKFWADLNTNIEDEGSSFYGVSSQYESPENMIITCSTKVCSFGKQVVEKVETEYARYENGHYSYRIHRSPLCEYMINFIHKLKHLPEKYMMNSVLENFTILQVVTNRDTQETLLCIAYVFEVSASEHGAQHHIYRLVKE
Chain of TEAD2 (Q15562 whole entry, species assumed): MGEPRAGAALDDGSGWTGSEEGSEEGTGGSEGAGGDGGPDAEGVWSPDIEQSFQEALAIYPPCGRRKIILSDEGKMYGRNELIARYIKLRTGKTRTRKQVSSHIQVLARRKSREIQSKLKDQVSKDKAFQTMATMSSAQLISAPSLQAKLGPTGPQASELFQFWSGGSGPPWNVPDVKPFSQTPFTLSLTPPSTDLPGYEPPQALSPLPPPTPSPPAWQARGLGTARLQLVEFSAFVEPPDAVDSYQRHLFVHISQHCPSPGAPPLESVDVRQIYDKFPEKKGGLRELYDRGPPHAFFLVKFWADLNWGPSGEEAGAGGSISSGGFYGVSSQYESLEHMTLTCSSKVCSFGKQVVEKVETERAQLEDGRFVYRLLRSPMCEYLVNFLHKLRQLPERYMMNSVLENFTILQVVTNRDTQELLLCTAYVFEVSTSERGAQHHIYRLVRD

IC50 [1] [nM] | TEAD2 ΔTm [2] [°C] | TEAD4 ΔTm [3] [°C] | TEAD1 ΔTm [4] [°C] | TEAD3 ΔTm [5] [°C] | Structure (SMILES)
100 to 500 | 10.2 | 5.2 | 5.2 | 1.4 | CNC(=O)[C@@H]1C[C@H]1c1cc(Oc2ccc(C(F)(F)F)cc2)cc2cn(C)nc12 (single isomer, unassigned) [Example 34a]
1000 to 30000 | 9.8 | 4.3 | 4.7 | −0.5 | [2H]C([2H])([2H])NC(=O)[C@@H]1C[C@H]1c1cc(Oc2ccc(C(F)(F)F)cc2)cc2cn(C)nc12 (single isomer, unassigned) [Example 52]
< 100 | 13.7 | 10.5 | 9.2 | 9.8 | [2H]C([2H])([2H])NC(=O)[C@H]1CC1c1cc(Oc2ccc(C(F)(F)F)cc2)cc2cn(C)nc12 (single isomer, unassigned) [Example 53]
< 100 | 9.8 | 9.5 | 8.5 | 1.2 | C[C@@H](CO)NC(=O)[C@@H]1CC1c1cc(Oc2ccc(C(F)(F)F)cc2)cc2cn(C)nc12 (single isomer, unassigned) [Example 54]
< 100 | 11.1 | 11.5 | 11.3 | 10.2 | C[C@H](CO)NC(=O)[C@@H]1CC1c1cc(Oc2ccc(C(F)(F)F)cc2)cc2cn(C)nc12 (single isomer, unassigned) [Example 55]
500 to 1000 | 6.5 | 2.6 | 5.4 | −0.3 | CC(C)NC(=O)[C@@H]1C[C@H]1c1cc(Oc2ccc(C(F)(F)F)cc2)cc2cn(C)nc12 (single isomer, unassigned) [Example 56a]
< 100 | 10.0 | 12.5 | 9.1 | 8.1 | CC(C)NC(=O)[C@H]1C[C@@H]1c1cc(Oc2ccc(C(F)(F)F)cc2)cc2cn(C)nc12 (single isomer, unassigned) [Example 56b]
100 to 500 | 4.7 | 7.9 | 6.9 | 0.4 | Cn1cc2cc(Oc3ccc(C(F)(F)F)cc3)cc([C@H]3C[C@@H]3C(=O)N[C@@H](CO)c3ccccn3)c2n1 (single isomer, unassigned) [Example 59a]
100 to 500 | 11.3 | 15.6 | 9.4 | 13.1 | Cn1cc2cc(Oc3ccc(C(F)(F)F)cc3)cc([C@@H]3C[C@H]3C(=O)N[C@@H](CO)c3ccccn3)c2n1 (single isomer, unassigned) [Example 59b]
< 100 | 12.7 | 12.3 | 9.5 | 11.2 | Cn1cc2cc(Oc3ccc(C(F)(F)F)cc3)cc([C@@H]3C[C@H]3C(=O)N3CC(C)(O)C3)c2n1 (single isomer, unassigned) [Example 60]
< 100 | 12.2 | 10.4 | 9.3 | 0.8 | Cn1cc2cc(Oc3ccc(C(F)(F)F)cc3)cc([C@@H]3C[C@H]3C(=O)N3CCO[C@H](CO)C3)c2n1 (single isomer, unassigned) [Example 61]
< 100 | 10.6 | 7.7 | 7.4 | 1.2 | Cn1cc2cc(Oc3ccc(C(F)(F)F)cc3)cc([C@@H]3C[C@H]3C(=O)N3CCO[C@@H](CO)C3)c2n1 (single isomer, unassigned) [Example 62]
< 100 | 14.7 | 11.7 | 11.1 | 10.6 | Cn1cc2cc(Oc3ccc(C(F)(F)F)cc3)cc([C@@H]3C[C@H]3C(=O)NCC#N)c2n1 (single isomer, unassigned) [Example 66]
< 100 | 9.9 | 7.9 | 8.8 | 1.7 | Cn1cc2cc(Oc3ccc(C(F)(F)F)cc3)cc([C@@H]3C[C@H]3C(=O)NC3(C#N)CC3)c2n1 (single isomer, unassigned) [Example 67]
< 100 | 13.9 | 12.9 | 10.9 | 11.6 | C[C@@H](C#N)NC(=O)[C@@H]1C[C@H]1c1cc(Oc2ccc(C(F)(F)F)cc2)cc2cn(C)nc12 (single isomer, unassigned) [Example 69]
< 100 | 11.7 | 8.6 | 8.4 | 7.0 | Cn1cc2cc(Oc3ccc(C(F)(F)F)cc3)cc([C@@H]3C[C@H]3C(=O)N3CC(C#N)C3)c2n1 (single isomer, unassigned) [Example 70]
1000 to 30000 | 13.4 | 12.2 | 11.2 | 12.2 | Cn1cc2cc(Oc3ccc(C(F)(F)F)cc3)cc([C@@H]3C[C@H]3C(=O)NC#N)c2n1 (single isomer, unassigned) [Example 71]
< 100 | 8.6 | 4.7 | 3.5 | 1.7 | Cn1cc2cc(Oc3ccc(C(F)(F)F)cc3)cc(C3C[C@H]3C(=O)N3CCC[C@@H]3C#N)c2n1 (single isomer, unassigned) [Example 72]
< 100 | 15.1 | 12.1 | 9.5 | 13.9 | Cn1cc2cc(Oc3ccc(C(F)(F)F)cc3)cc(C3C[C@H]3C(=O)N3CCC[C@H]3C#N)c2n1 (single isomer, unassigned) [Example 73]
< 100 | 12.9 | 10.2 | 10.7 | 11.4 | Cn1cc2cc(Oc3ccc(C(F)(F)F)cc3)cc(C3C[C@H]3C(=O)N3CCC(O)CC3)c2n1 (single isomer, unassigned) [Example 74]
< 100 | 11.9 | 11.6 | 9.3 | 10.1 | Cn1cc2cc(Oc3ccc(C(F)(F)F)cc3)cc([C@@H]3C[C@H]3C(=O)N3CC[C@@H](O)[C@H](O)C3)c2n1 (single isomer, unassigned) [Example 75b]
< 100 | 7.1 | 4.4 | 7.4 | 1.8 | Cc1cn2cc(Oc3ccc(C(F)(F)F)cc3)cc([C@H]3C[C@@H]3C(=O)N3CC(O)C3)c2n1 (single isomer, unassigned) [Example 85b]
1000 to 30000 | 2.7 | 2.6 | 2.6 | 0.2 | Cn1cc2cc(N3CCC4(CCCC4)CC3)cc(C3C[C@H]3C(=O)N3C[C@H](O)[C@@H](O)C3)c2n1 (single isomer, unassigned) [Example 86]
< 100 | 10.9 | 9.7 | 7.6 | 2.6 | Cn1cc2cc(Oc3ccc(C(F)(F)F)cn3)cc([C@H]3C[C@@H]3C(=O)N3CC(O)C3)c2n1 (single isomer, unassigned) [Example 88b]
< 100 | 12.4 | 11.4 | 8.6 | 8.8 | Cn1cc2cc(Oc3ccc(C(F)F)cc3)cc([C@H]3C[C@@H]3C(=O)N3CC(O)C3)c2n1 (single isomer, unassigned) [Example 89b]
< 100 | 10.5 | 10.3 | 7.7 | 2.9 | Cn1cc2cc(Oc3ccc(F)c(F)c3)cc([C@H]3C[C@@H]3C(=O)N3CC(O)C3)c2n1 (single isomer, unassigned) [Example 90b]
< 100 | 10.6 | 9.4 | 9.4 | 6.4 | Cn1cc2cc(Oc3ccc(C(F)(F)F)cc3)cc(C3C[C@H]3C(=O)NC3CC4(CC(O)C4)C3)c2n1 (single isomer, unassigned) [Example 95]
